ChEMBL document CHEMBL1129114, “Bioactive hydroxyethylene dipeptide isosteres with hydrophobic (P3-P1)-moieties. A novel strategy towards small non-peptide renin inhibitors” (Bioorg Med Chem Lett, 1996)

Molecular target: T1, Renin (Homo sapiens, UniProt P00797)
T1 sequence (P00797 whole entry): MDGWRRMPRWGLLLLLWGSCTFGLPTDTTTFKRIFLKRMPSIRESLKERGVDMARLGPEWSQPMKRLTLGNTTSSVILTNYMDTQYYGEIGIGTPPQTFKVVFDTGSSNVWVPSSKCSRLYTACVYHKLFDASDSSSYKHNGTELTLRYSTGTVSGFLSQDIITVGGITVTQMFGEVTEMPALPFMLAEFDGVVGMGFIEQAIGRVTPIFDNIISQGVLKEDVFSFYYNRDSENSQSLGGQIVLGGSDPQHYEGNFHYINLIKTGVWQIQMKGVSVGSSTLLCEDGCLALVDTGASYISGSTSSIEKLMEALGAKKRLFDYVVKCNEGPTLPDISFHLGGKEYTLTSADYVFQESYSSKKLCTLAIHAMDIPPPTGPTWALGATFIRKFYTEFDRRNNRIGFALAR
Assay: In vitro binding affinity was tested against purified human renin at pH 7.2

Row | IC50 | SMILES
1 | 3.7 µM | CCCCNC(=O)[C@H](C)C[C@H](O)[C@@H](N)CC(C)(C)CCCc1ccc2ccccc2c1
2 | 58 µM | CCCCNC(=O)[C@H](C)C[C@H](O)[C@@H](N)CC(C)(C)CCc1cccc(CO)c1
3 | 10 µM | CCCCNC(=O)[C@H](C)C[C@H](O)[C@@H](N)CC(C)(C)CCc1ccc(CO)c2ccccc12
4 | 13 µM | CCCCNC(=O)[C@H](C)C[C@H](O)[C@@H](N)Cc1cccc(CCCC(C)(C)C)c1
5 | 2.9 µM | CCCCNC(=O)[C@H](C)C[C@H](O)[C@@H](N)C[C@@H]1CCC[C@H](CCCC(C)(C)C)C1
6 | 0.7 µM | CCCCNC(=O)[C@H](C)C[C@H](O)[C@@H](N)CC(C)(C)CCc1cccc2ccccc12
7 | 3 µM | CCCCNC(=O)[C@H](C)C[C@H](O)[C@@H](N)CC(C)(C)CCc1ccc2ccccc2c1
8 | > 100 µM | CCCCNC(=O)[C@H](C)C[C@H](O)[C@@H](N)CC(C)C
9 | 0.3 µM | CCCCNC(=O)[C@H](C)C[C@H](O)[C@@H](N)C[C@@H]1CCC[C@@H](CCCC(C)(C)C)C1
10 | 4.3 µM | CCCCNC(=O)[C@H](C)C[C@H](O)[C@@H](N)C[C@H]1CC[C@H](CCCC(C)(C)C)CC1
11 | 2.1 µM | CCCCNC(=O)[C@H](C)C[C@H](O)[C@@H](N)CC(C)(C)CCCc1cccc2ccccc12
12 | 2.7 µM | CCCCNC(=O)[C@H](C)C[C@H](O)[C@@H](N)CC(CC)(CC)CCc1cccc2ccccc12
13 | 30 µM | CCCCNC(=O)[C@H](C)C[C@H](O)[C@@H](N)CC1CCCCC1
14 | 32 µM | CCCCNC(=O)[C@H](C)C[C@H](O)[C@@H](N)Cc1ccc(OCc2ccccc2)cc1
15 | 79 µM | CCCCNC(=O)[C@H](C)C[C@H](O)[C@@H](N)CC(C)(C)CCc1ccc(CO)cc1
16 | 0.8 µM | CCCCNC(=O)[C@H](C)C[C@H](O)[C@@H](N)CC1CCCC(CCCC(C)(C)C)C1 (stereo partly specified)
